Results reported in patent US8067395B2, “Inhibitors of tyrosine kinases and uses thereof” (Pharmacyclics, Inc., priority 2006, dated 2011).

Target: Btk (Homo sapiens, UniProt Q06187)
Experiment: Btk TR-FRET kinase inhibition assay
Type: biochemical
Settings: pH 7.4, ATP at the Km for the kinase, 1 μM peptide substrate, [Btk]total=0.5 nM, read-out: Btk-TRFRET (Ki)
Method: Suitable in vitro assays for measuring kinase activity and the inhibition thereof by compounds are known (e.g., see Kuzmic et al. Anal. Biochem. 2000, 286, 45-50).
The following protocol represents an assay for determination of inhibition of kinases under physiological conditions (pH 7.4). Kinase activity was determined using a time-resolved fluorescence resonance energy transfer (TR-FRET) methodology. Measurements were performed in a reaction volume of 50 μL using 96-well assay plates. Kinase enzyme, inhibitor, ATP (at the Km for the kinase), and 1 μM peptide substrate (Biotin-AVLESEEELYSSARQ-NH2) were incubated in a reaction buffer composed of 20 mM Tris, 50 mM NaCl, MgCl2 (5-25 mM depending on the kinase), 1 mM DTT, 0.1 mM EDTA, 0.01% bovine serum albumin, 0.005% Tween-20, and 10% DMSO at pH 7.4 for one hour. The reaction was quenched by the addition of 1.2 equivalents of EDTA (relative to Mg^2+) in 25 μL of 1× Lance buffer (Perkin-Elmer). Streptavidin-APC (Perkin-Elmer) and Eu-labeled p-Tyr100 antibody (Perkin-Elmer) in 1× Lance buffer were added in a 25 μL volume to give final concentrations of 100 nM and 2.5 nM, respectively, and the mixture was allowed to incubate for one hour. The TR-FRET signal was measured on a multimode plate reader with an excitation wavelength of 330 nm and detection wavelengths of 615 nm and 665 nm. Activity was determined by the ratio of the fluorescence at 665 nm to that at 615 nm. For each compound, enzyme activity was measured at various concentrations of compound. Negative control reactions were performed in the absence of inhibitor in replicates of six, and two no-enzyme controls were used to determine baseline fluorescence levels. Inhibition constants were obtained using the program BatchKi (Kuzmic et al. Anal. Biochem. 2000, 286, 45-50). IC50s were obtained according to this equation: IC50={Ki(app)/(1+[ATP]/Km^ATP)}+[E]total/2; for all kinases, [ATP]=Km^ATP, [Btk]total=0.5 nM and [Lck]total=6 nM.

Btk, sequence (Q06187 whole entry): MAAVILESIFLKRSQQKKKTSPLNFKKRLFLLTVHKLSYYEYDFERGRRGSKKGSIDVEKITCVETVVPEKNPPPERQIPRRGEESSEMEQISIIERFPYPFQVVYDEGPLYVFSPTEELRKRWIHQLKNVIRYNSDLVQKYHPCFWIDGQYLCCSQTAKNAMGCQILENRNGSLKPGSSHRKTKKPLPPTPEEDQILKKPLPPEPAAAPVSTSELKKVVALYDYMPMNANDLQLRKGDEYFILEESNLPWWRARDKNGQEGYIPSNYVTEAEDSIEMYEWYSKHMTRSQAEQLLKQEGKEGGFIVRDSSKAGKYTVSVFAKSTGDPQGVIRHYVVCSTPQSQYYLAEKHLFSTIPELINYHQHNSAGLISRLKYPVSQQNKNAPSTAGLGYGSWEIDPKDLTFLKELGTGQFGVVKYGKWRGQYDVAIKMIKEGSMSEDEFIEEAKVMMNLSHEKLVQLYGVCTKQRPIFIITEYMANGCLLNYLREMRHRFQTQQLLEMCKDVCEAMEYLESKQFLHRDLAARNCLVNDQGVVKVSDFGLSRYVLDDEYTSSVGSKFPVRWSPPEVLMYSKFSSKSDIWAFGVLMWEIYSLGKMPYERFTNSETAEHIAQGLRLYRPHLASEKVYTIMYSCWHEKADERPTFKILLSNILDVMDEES

| Ki [nM] | Structure (SMILES) |
| --- | --- |
| < 100 | Cc1cc(F)ccc1Nc1nc2ccc3c(C)c(/C=C/CNC(=O)C4CCP(C)(=O)CC4)[nH]c(=O)c3c2n1C (mixture of isomers) [Compound 15, 2-(4-fluoro-2-methylphenylamino)-1,6-dimethyl-7-{3-[(1-oxo-1-methyl-1λ^5-phosphinan-4-yl)-carbonylamino]propenyl}-1,8-dihydro-imidazo[4,5-h]isoquinolin-9-one] |
| < 100 | Cc1c(/C=C/CN2CCP(=O)(c3ccccc3)CC2)[nH]c(=O)c2c1ccc1nc(Nc3c(Cl)cccc3Cl)n(C)c12 [Compound 5, 2-(2,6-dichlorophenylamino)-1,6-dimethyl-7-[3-(4-oxo-4-phenyl-4λ^5-[1,4]azaphosphinan-1-yl)-propenyl]-1,8-dihydro-imidazo[4,5-h]isoquinolin-9-one] |
| < 100 | Cc1cc(Cl)cc(Cl)c1Nc1nc2ccc3c(C)c(C=CCN4CCP(=O)(c5ccccc5)CC4)[nH]c(=O)c3c2n1C [Compound 6, 2-(2,4-dichloro-6-methylphenylamino)-1,6-dimethyl-7-[3-(4-oxo-4-phenyl-4λ^5-[1,4]azaphosphinan-1-yl)-propenyl]-1,8-dihydro-imidazo[4,5-h]isoquinolin-9-one] |

Second part, the compound before the results:

| Structure (SMILES) | Ki [nM] |
| --- | --- |
| Cc1cc(F)ccc1Nc1nc2ccc3c(C)c(/C=C/CN4CCP(C)(=O)CC4)[nH]c(=O)c3c2n1C [Compound 1, 2-(4-fluoro-2-methylphenylamino)-1,6-dimethyl-7-[3-(4-methyl-4-oxo-4λ^5[1,4]azaphosphinan-1-yl)-propenyl]-1,8-dihydro-imidazo[4,5-h]isoquinolin-9-one] | < 100 |
| Cc1c(C=CCN2CCP(C)(=O)CC2)[nH]c(=O)c2c1ccc1nc(Nc3c(Cl)cccc3Cl)n(C)c12 [Compound 2, 2-(2,6-dichloro-phenylamino)-1,6-dimethyl-7-[3-(4-methyl-4-oxo-4λ^5[1,4]azaphosphinan-1-yl)-propenyl]-1,8-dihydro-imidazo[4,5-h]isoquinolin-9-one] | < 100 |
| Cc1cc(F)ccc1Nc1nc2ccc3c(C)c(/C=C/CN4CCP(=O)(c5ccccc5)CC4)[nH]c(=O)c3c2n1C [Compound 3, 2-(4-fluoro-2-methylphenylamino)-1,6-dimethyl-7-[3-(4-oxo-4-phenyl-4λ^5-[1,4]azaphosphinan-1-yl)-propenyl]-1,8-dihydro-imidazo[4,5-h]isoquinolin-9-one] | < 100 |
| Cc1ccc(F)cc1Nc1nc2ccc3c(C)c(C=CCN4CCP(=O)(c5ccccc5)CC4)[nH]c(=O)c3c2n1C [Compound 4, 2-(3-fluoro-6-methylphenylamino)-1,6-dimethyl-7-[3-(4-oxo-4-phenyl-4λ^5-[1,4]azaphosphinan-1-yl)-propenyl]-1,8-dihydro-imidazo[4,5-h]isoquinolin-9-one] | < 100 |
| Cc1ccc(F)cc1Nc1nc2ccc3c(C)c(C=CC(=O)N4CCP(=O)(c5ccccc5)CC4)[nH]c(=O)c3c2n1C [Compound 7, 2-(3-fluoro-6-methylphenylamino)-1,6-dimethyl-7-{2-[(4-oxo-4-phenyl-4λ^5-[1,4]azaphosphinan-1-yl)-carbonyl]ethenyl}-1,8-dihydro-imidazo[4,5-h]isoquinolin-9-one] | 100 to 1000 |
| Cc1cc(Cl)cc(Cl)c1Nc1nc2ccc3c(C)c(CCCN4CCP(=O)(c5ccccc5)CC4)[nH]c(=O)c3c2n1C [Compound 8, 2-(2,4-dichloro-6-methylphenylamino)-1,6-dimethyl-7-[3-(4-oxo-4-phenyl-4λ^5-[1,4]azaphosphinan-1-yl)-propyl]-1,8-dihydro-imidazo[4,5-h]isoquinolin-9-one] | 100 to 1000 |
| Cc1cc(F)ccc1Nc1nc2ccc3c(C)c(CCCN4CCP(=O)(c5ccccc5)CC4)[nH]c(=O)c3c2n1C [Compound 9, 2-(4-fluoro-2-methylphenylamino)-1,6-dimethyl-7-[3-(4-oxo-4-phenyl-4λ^5-[1,4]azaphosphinan-1-yl)-propyl]-1,8-dihydro-imidazo[4,5-h]isoquinolin-9-one] | 100 to 1000 |
